Assay results published in the RepoRT retention time repository.

Assay: RP, Thermo Scientific Hypersil GOLD, 1.9 µm, 40 °C, 0.4 mL/min; A: water + 0.1% formic acid, pH 3; B: acetonitrile + 0.1% formic acid, pH 3; gradient (min/%B) 0/0 1/0 11/100 13/100 14/0 16/0
Conditions: stereoisomer not certain

Question: With `NC(CCSCC(N)C(=O)O)C(=O)O` (stereo not drawn) [CYSTATHIONINE] as the compound, how does the LC retention time read?
Answer: 0.61 min

Question: Which LC retention time does the source give for `C[n+]1cccc(C(=O)[O-])c1` [TRIGONELLINE] here?
Answer: 0.69 min

Question: Which LC retention time does the source give for `CNCC(=O)O` [SARCOSINE] here?
Answer: 0.62 min

Question: With `Nc1ccn(C2CC(O)C(COP(=O)([O-])OP(=O)([O-])[O-])O2)c(=O)n1` (stereo not drawn) [DEOXYCYTIDINE-DIPHOSPHATE] as the compound, how does the LC retention time read?
Answer: 1.13 min

Question: For `NC(=O)Cc1c[nH]c2ccccc12` [INDOLE-3-ACETAMIDE], which LC retention time is on record?
Answer: 5.37 min

Question: For `CCOC(=O)Cc1c[nH]c2ccccc12` [ETHYL 3-INDOLEACETATE], which LC retention time is on record?
Answer: 8.03 min

Question: With `CC(C)(O)C(=O)O` [ALPHA-HYDROXYISOBUTYRATE] as the compound, how does the LC retention time read?
Answer: 1.62 min

Question: With `CCCCCCSCC(NC(=O)CCC(N)C(=O)O)C(=O)NCC(=O)O` (stereo not drawn) [S-HEXYL-GLUTATHIONE] as the compound, how does the LC retention time read?
Answer: 6.32 min

Question: Which LC retention time does the source give for `CC(C)=CC(=O)OC(CC(=O)[O-])C[N+](C)(C)C` [3-Methylcrotonyl-L-carnitine] here?
Answer: 4.71 min

Question: For `CC(C)(CO)C(O)C(=O)NCCC(=O)O` (stereo not drawn) [PANTOTHENATE], which LC retention time is on record?
Answer: 4.11 min

Question: For `Nc1ncnc2c1ncn2C1OC(CO)C2OP(=O)(O)OC21` (stereo not drawn) [ADENOSINE 2'-3'-CYCLIC PHOSPHATE], which LC retention time is on record?
Answer: 0.83 min

Question: Which LC retention time does the source give for `CCCCCCCCCCCCCCCC(O)C(N)CO` (stereo not drawn) [SPHINGANINE] here?
Answer: 9.45 min

Question: With `COc1cc(C(O)C(=O)O)ccc1O` (stereo not drawn) [3-METHOXY-4-HYDROXYMANDELATE] as the compound, how does the LC retention time read?
Answer: 2.15 min

Question: Which LC retention time does the source give for `CN(C)CC(=O)O` [N-N-dimethylglycine] here?
Answer: 0.63 min

Question: For `CC(O)(CC(=O)O)CC(=O)O` [3-HYDROXYMETHYLGLUTARATE], which LC retention time is on record?
Answer: 1.48 min

Question: For `CC12CCC(=O)C=C1CCC1C2C(O)CC2(C)C1CCC2(O)C(=O)CO` (stereo not drawn) [CORTISOL], which LC retention time is on record?
Answer: 6.73 min

Question: With `CCN(CC)CCCC(C)Nc1c2ccc(Cl)cc2nc2ccc(OC)cc12` (stereo not drawn) [quinacrine] as the compound, how does the LC retention time read?
Answer: 5.61 min

Question: For `O=C([O-])CCc1ccccc1O` [3-(2-HYDROXYPHENYL)PROPANOATE], which LC retention time is on record?
Answer: 5.92 min

Question: For `Cn1cc(C(N)=O)ccc1=O` [N-methyl-2-pyridone-5-carboxamide], which LC retention time is on record?
Answer: 1.6 min

Question: Which LC retention time does the source give for `NC(CSSCC(N)C(=O)O)C(=O)O` (stereo not drawn) [CYSTINE] here?
Answer: 0.61 min

Question: With `CCC(C(=O)O)C(=O)O` [ETHYLMALONATE] as the compound, how does the LC retention time read?
Answer: 3.77 min

Question: Which LC retention time does the source give for `CC(CCC(=O)O)C1CCC2C3C(O)CC4CC(O)CCC4(C)C3CCC12C` (stereo not drawn) [CHENODEOXYCHOLATE] here?
Answer: 9.15 min

Question: Which LC retention time does the source give for `NC(CS(=O)(=O)O)C(=O)O` (stereo not drawn) [CYSTEATE] here?
Answer: 0.65 min

Question: For `O=C([O-])C(O)c1ccccc1` (stereo not drawn) [MANDELATE], which LC retention time is on record?
Answer: 4.72 min

Question: For `Nc1ncnc2c1ncn2C1CC(O)C(COP(=O)(O)O)O1` (stereo not drawn) [DEOXYADENOSINE MONOPHOSPHATE], which LC retention time is on record?
Answer: 0.84 min

Question: For `C[N+](C)(C)CCO` [CHOLINE], which LC retention time is on record?
Answer: 0.62 min

Question: For `CSCC[C@H](NC=O)C(=O)O` [N-FORMYL-L-METHIONINE], which LC retention time is on record?
Answer: 4.28 min

Question: For `O=C([O-])c1c[nH]c(=O)[nH]c1=O` [URACIL 5-CARBOXYLATE], which LC retention time is on record?
Answer: 0.87 min

Question: For `NC(CCSSCCC(N)C(=O)O)C(=O)O` (stereo not drawn) [HOMOCYSTINE], which LC retention time is on record?
Answer: 0.72 min

Question: For `Nc1ncnc2c1ncn2C1OC(COP(=O)(O)O)C(O)C1O` (stereo not drawn) [ADENOSINE-MONOPHOSPHATE], which LC retention time is on record?
Answer: 0.77 min

Question: Which LC retention time does the source give for `O=C(O)c1ccc(=O)[nH]c1` [6-HYDROXYNICOTINATE] here?
Answer: 1.5 min

Question: Which LC retention time does the source give for `O=C(O)C(O)c1ccc(O)c(O)c1` (stereo not drawn) [3-4 DIHYDROXYMANDELATE] here?
Answer: 0.91 min

Question: Which LC retention time does the source give for `Cc1ccccc1C(=O)NCC(=O)O` [2-Methylhippuric acid (ortho-Methylhippuric acid)] here?
Answer: 5.31 min

Question: Which LC retention time does the source give for `O=C1OC(C(O)CO)C(O)C1O` [L-GULONOLACTONE] here?
Answer: 0.66 min

Question: With `NC(=O)CC[C@H](N)C(=O)O` [L-Glutamine] as the compound, how does the LC retention time read?
Answer: 0.62 min

Question: For `c1ccc(CNc2ccccc2)cc1` [N-benzylaniline], which LC retention time is on record?
Answer: 8.5 min

Question: For `CCC(N)C(=O)O` [alpha-aminobutyric acid (L-2-aminobutyric acid)], which LC retention time is on record?
Answer: 0.69 min

Question: Which LC retention time does the source give for `COc1cc(C(=O)O)ccc1O` [Vanillic acid] here?
Answer: 4.97 min

Question: With `O=c1cc[nH]c(=O)[nH]1` [URACIL] as the compound, how does the LC retention time read?
Answer: 0.84 min

Question: Which LC retention time does the source give for `O=c1[nH]c(=O)c2ncn(C3OC(COP(=O)(O)O)C(O)C3O)c2[nH]1` (stereo not drawn) [XANTHOSINE-MONOPHOSPHATE] here?
Answer: 0.83 min

Question: For `CCCCC(N)C(=O)O` (stereo not drawn) [NORLEUCINE], which LC retention time is on record?
Answer: 1.67 min

Question: For `CC(CCC(=O)O)C1CCC2C3C(O)C(O)C4CC(O)CCC4(C)C3CCC12C` (stereo not drawn) [5b-cholanic acid-3a-6a-7a-TRIOL], which LC retention time is on record?
Answer: 7.96 min

Question: With `Nc1ncnc2c1ncn2C1CC(O)C(CO)O1` (stereo not drawn) [DEOXYADENOSINE] as the compound, how does the LC retention time read?
Answer: 1.09 min

Question: For `CC(C)C(O)(CC(=O)O)C(=O)O` (stereo not drawn) [2-Isopropylmalic acid], which LC retention time is on record?
Answer: 4.79 min

Question: With `CCCCCCCCCCCCCCCCCCOCC(O)COP(=O)([O-])OCC[N+](C)(C)C` (stereo not drawn) [C18_LysoPAF] as the compound, how does the LC retention time read?
Answer: 10.4 min

Question: With `NC(=O)C1CCCN1C(=O)C(Cc1cnc[nH]1)NC(=O)C1CCC(=O)N1` (stereo not drawn) [THYROTROPIN RELEASING HORMONE] as the compound, how does the LC retention time read?
Answer: 0.84 min

Question: For `CC(O)(CC(=O)O)C(=O)O` (stereo not drawn) [CITRAMALATE], which LC retention time is on record?
Answer: 1.23 min

Question: Which LC retention time does the source give for `Cc1cc(O)cc2c1OC(C)(CCC(=O)O)CC2` (stereo not drawn) [delta CEHC] here?
Answer: 6.88 min
